The source of these data is US20090221559A1 (priority 2005, published 2009).

Molecules are shown by their SMILES.

The target in assay [1] is T1, HCV NS5B polymerase (His-tagged, C-terminal 21 amino acid deleted NS5B, HC-J4) (Hepatitis C virus genotype 1b, UniProt O92972).
T1 construct: The cDNA encoding NS5B amino acid 1-570 (HC-J4, genotype 1b); His tag (His6, from pET-21b) (C); made in house; host or cells: E. coli BL21 (DE3)
Kind of assay: NS5b polymerase assay (biochemical RdRp assay, 3H-GTP incorporation, SPA beads). Details: species or system HCV genotype 1b. The note with it: NS5B Polymerase Assay IC50 (μM). The method, boiled down: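 His-tagged C-terminal-21-aa-deleted NS5B (genotype 1b, HC-J4) at 200 nM was preincubated 15 min at RT with compound on 5′-biotinylated oligo(rG13)/poly(rC) template/primer before NTPs. Reaction with 600 nM GTP plus 0.1 μCi 3H-GTP and 5 mM MgCl2 in Tris pH 7.5 ran 2 h at 25 °C. Stopped with EDTA/SPA beads for incorporation counting.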

Assay [2] relates to HCV replicon RNA replication in Huh-7 luc/neo (Huh-Luc) cells. The assay is described as follows: HCV replicon assay (stable replicon cell reporter assay, luciferase read-out). Format: cell-based, HCV type 1b. The conditions noted are these: Hepatitis C virus, Huh-7, 72 h, read-out: Replicon Assay EC50 (μM), Huh-Luc cells, incubation of three days, luciferase activity. The method, boiled down: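 Huh-7 cells stably carry a bicistronic HCV 1b NS3-NS5B subgenomic replicon with firefly luciferase and neo markers. Cells were plated with compound across a concentration range and incubated three days. Replication was measured as luciferase activity to give dose-response curves.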

T1 sequence (O92972 2417-3000, looked up, stated change not applied): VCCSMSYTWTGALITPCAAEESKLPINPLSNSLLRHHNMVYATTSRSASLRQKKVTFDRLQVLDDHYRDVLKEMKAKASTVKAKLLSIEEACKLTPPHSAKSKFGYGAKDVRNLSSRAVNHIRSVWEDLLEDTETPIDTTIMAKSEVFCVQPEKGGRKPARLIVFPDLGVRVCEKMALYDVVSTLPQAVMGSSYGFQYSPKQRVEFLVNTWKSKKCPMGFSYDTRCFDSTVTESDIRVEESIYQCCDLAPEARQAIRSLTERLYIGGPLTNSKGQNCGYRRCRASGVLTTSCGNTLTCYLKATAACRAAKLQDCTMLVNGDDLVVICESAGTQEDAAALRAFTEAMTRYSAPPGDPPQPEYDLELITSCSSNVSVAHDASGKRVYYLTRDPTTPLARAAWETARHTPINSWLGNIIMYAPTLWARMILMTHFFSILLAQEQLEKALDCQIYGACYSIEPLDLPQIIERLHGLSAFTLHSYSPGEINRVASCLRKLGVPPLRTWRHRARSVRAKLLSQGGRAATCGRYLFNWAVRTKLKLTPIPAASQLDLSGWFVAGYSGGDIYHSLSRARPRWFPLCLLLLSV

As for `CC1(C)CC(=O)C2=C(C1)Nc1ccccc1NC2c1cccc(Oc2ccccc2)c1` (stereo not shown) [compound 433, 11-(3-phenoxyphenyl)-3,3-dimethyl-2,3,4,5,10,11-hexahydro-1H-dibenzo[b,e][1,4]diazepin-1-one], the half-inhibitory concentration (IC50) in assay [1] is > 133 µM. Moreover, the EC50 in assay [2] amounted to 3.81 µM.

`CC1(C)CC(=O)C2=C(C1)Nc1ccccc1NC2c1ccc(OC(F)(F)F)cc1` (stereo not shown) [compound 434, 11-(4-trifluoromethyloxyphenyl)-3,3-dimethyl-2,3,4,5,10,11-hexahydro-1H-dibenzo[b,e][1,4]diazepin-1-one]: the IC50 in assay [1] was > 133 µM. In addition, the 50% effective concentration (EC50) in assay [2] was determined as 22.9 µM.

Regarding `CC1(C)CC(=O)C2=C(C1)Nc1ccccc1NC2c1ccc(Oc2ccccc2)cc1` (stereo not shown) [compound 435, 11-(4-phenoxyphenyl)-3,3-dimethyl-2,3,4,5,10,11-hexahydro-1H-dibenzo[b,e][1,4]diazepin-1-one], the half-maximal inhibitory concentration (IC50) in assay [1] is > 133 µM. Moreover, the half-maximal effective concentration (EC50) in assay [2] amounted to 6.7 µM.

As to `CC1(C)CC(=O)C2=C(C1)Nc1ccccc1NC2c1cc(Cl)cc(Cl)c1` (stereo not shown) [compound 436, 11-[3,5-dichlorophenyl]-3,3-dimethyl-2,3,4,5,10,11-hexahydro-1H-dibenzo[b,e][1,4]diazepin-1-one], the IC50 in assay [1] is > 133 µM. Also, in assay [2], the EC50 is 19.7 µM.

`CC1(C)CC(=O)C2=C(C1)Nc1ccccc1NC2c1cccc(OCc2ccccc2)c1` (stereo not shown) [compound 437, 11-(3-benzyloxyphenyl)-3,3-dimethyl-2,3,4,5,10,11-hexahydro-1H-dibenzo[b,e][1,4]diazepin-1-one] yielded an IC50 in assay [1] of 32.9 µM. Further, the concentration giving a half-maximal response (EC50) in assay [2] was 6.35 µM.

Turning to `CC1(C)CC(=O)C2=C(C1)Nc1ccccc1NC2c1cc(Cl)ccc1Cl` (stereo not shown) [compound 438, 11-[2,5-dichlorophenyl]-3,3-dimethyl-2,3,4,5,10,11-hexahydro-1H-dibenzo[b,e][1,4]diazepin-1-one], the IC50 in assay [1] is > 133 µM. In addition, the EC50 in assay [2] turned out to be 15.4 µM.

In turn, `CC1(C)CC(=O)C2=C(C1)Nc1ccccc1NC2c1ccc(OCc2ccccc2)c(Cl)c1` (stereo not shown) [compound 439, 11-[4-benzyloxy-3-chlorophenyl]-3,3-dimethyl-2,3,4,5,10,11-hexahydro-1H-dibenzo[b,e][1,4]diazepin-1-one] showed an IC50 in assay [1] of 3.63 µM. Also, the concentration for a half-maximal effect (EC50) in assay [2] is 4.33 µM.

With `CC1(C)CC(=O)C2=C(C1)Nc1ccccc1NC2c1ccc(O)cc1` (stereo not shown) [compound 440, 3,3-dimethyl-11-(4-hydroxyphenyl)-2,3,4,5,10,11-hexahydro-1H-dibenzo[b,e][1,4]diazepin-1-one], in assay [1], the IC50 was > 133 µM. Besides, the EC50 in assay [2] is > 100 µM.

On to `CC1(C)CC(=O)C2=C(C1)Nc1ccccc1NC2c1ccc(F)cc1F` (stereo not shown) [compound 441, 11-(2,4-difluorophenyl)-3,3-dimethyl-2,3,4,5,10,11-hexahydro-1H-dibenzo[b,e][1,4]diazepin-1-one], for which the IC50 in assay [1] was > 133 µM. Besides, the EC50 in assay [2] was > 100 µM.

In the case of `CC1(C)CC(=O)C2=C(C1)Nc1ccccc1NC2c1ccc(Oc2ccccc2Br)cc1` (stereo not shown) [compound 442, 11-[4-(2-bromophenoxy)phenyl]-3,3-dimethyl-2,3,4,5,10,11-hexahydro-1H-dibenzo[b,e][1,4]diazepin-1-one], in assay [1], the IC50 was > 133 µM. Moreover, in assay [2], the concentration for a half-maximal effect (EC50) stood at 2.71 µM.

The compound `CC1(C)CC(=O)C2=C(C1)Nc1ccccc1NC2c1ccc(OCc2ccccc2)cc1Cl` (stereo not shown) [compound 443] had an IC50 in assay [1] of 0.312 µM. The EC50 in assay [2] came to 1.78 µM.

Take `CC1(C)CC(=O)C2=C(C1)Nc1ccccc1NC2c1cc(Cl)c(OCc2ccccc2)c(Cl)c1` (stereo not shown) [compound 444, 11-[4-benzyloxy-3,5-dichlorophenyl]-3,3-dimethyl-2,3,4,5,10,11-hexahydro-1H-dibenzo[b,e][1,4]diazepin-1-one]: the 50% inhibitory concentration (IC50) in assay [1] came out at 33.2 µM. Besides, the concentration giving a half-maximal response (EC50) in assay [2] is 4.45 µM.

In the case of `CC1(C)CC(=O)C2=C(C1)Nc1ccccc1NC2c1ccc(OCc2ccccc2)cc1OCc1ccccc1` (stereo not shown) [compound 445, 11-[2,4-dibenzyloxyphenyl]-3,3-dimethyl-2,3,4,5,10,11-hexahydro-1H-dibenzo[b,e][1,4]diazepin-1-one], the 50% inhibitory concentration (IC50) in assay [1] was > 133 µM. Moreover, the EC50 in assay [2] amounted to 1.98 µM.

In the case of `CC1(C)CC(=O)C2=C(C1)Nc1ccccc1NC2c1cccc(Oc2ccccc2Br)c1` (stereo not shown) [compound 446, 11-[3-(2-bromophenoxy)phenyl]-3,3-dimethyl-2,3,4,5,10,11-hexahydro-1H-dibenzo[b,e][1,4]diazepin-1-one], the IC50 in assay [1] is > 133 µM. The EC50 in assay [2] worked out at 4.12 µM.

With `CC1(C)CC(=O)C2=C(C1)Nc1ccccc1NC2c1c(Cl)cc(OCc2ccccc2)cc1Cl` (stereo not shown) [compound 447, 11-(4-benzyloxy-2,6-dichlorophenyl)-3,3-dimethyl-2,3,4,5,10,11-hexahydro-1H-dibenzo[b,e][1,4]diazepin-1-one], the IC50 in assay [1] was > 133 µM. For the same compound, the 50% effective concentration (EC50) in assay [2] was determined as 2.52 µM.

`CC1(C)CC(=O)C2=C(C1)Nc1ccccc1NC2c1ccc([N+](=O)[O-])cc1` (stereo not shown) [compound 448]: the half-maximal inhibitory concentration (IC50) in assay [1] is > 133 µM. The EC50 in assay [2] was > 100 µM.

As for `Cc1cc2c(cc1C)NC(c1ccc(Cl)c([N+](=O)[O-])c1)C1=C(CC(C)(C)CC1=O)N2` (stereo not shown) [compound 452], in assay [1], the concentration for half-maximal inhibition (IC50) was > 42.7 µM. Besides, in assay [2], the EC50 worked out at 19.7 µM.

Regarding `COc1ccc(C2Nc3ccc(C(=O)c4ccccc4)cc3NC3=C2C(=O)CC(C)(C)C3)cc1OC` (stereo not shown) [compound 453], the IC50 in assay [1] is > 42.7 µM. The half-maximal effective concentration (EC50) in assay [2] is 19.2 µM.

For `Cc1cc2c(cc1C)NC(c1c(F)cccc1F)C1=C(CC(C)(C)CC1=O)N2` (stereo not shown) [compound 454], the IC50 in assay [1] was > 42.7 µM. The concentration for a half-maximal effect (EC50) in assay [2] turned out to be 3.44 µM.

Turning to `CC1(C)CC(=O)C2=C(C1)Nc1cc(C(=O)c3ccccc3)ccc1NC2c1ccccc1Cl` (stereo not shown) [compound 463], the half-maximal inhibitory concentration (IC50) in assay [1] is > 33.3 µM. Further, the EC50 in assay [2] is 7.43 µM.

Turning to `Cc1cc2c(cc1C)NC(c1ccc(Cl)cc1Cl)C1=C(CC(C)(C)CC1=O)N2` (stereo not shown) [compound 464, 11-(2,4-Dichlorophenyl)-2,3,4,5,10,11-hexahydro-3,3,7,8-tetramethyl-1H-dibenzo[b,e][1,4]diazepin-1-one], the 50% inhibitory concentration (IC50) in assay [1] was > 133 µM. For the same compound, in assay [2], the EC50 was 82.7 µM.

The compound `CC1(C)CC(=O)C2=C(C1)Nc1cc(Cl)c(Cl)cc1NC2c1ccc(Cl)cc1Cl` (stereo not shown) [compound 465, 7,8-Dichloro-11-(2,4-dichlorophenyl)-2,3,4,5,10,11-hexahydro-3,3-dimethyl-1H-dibenzo[b,e][1,4]diazepin-1-one] yielded a 50% inhibitory concentration (IC50) in assay [1] of 60 µM. In addition, the 50% effective concentration (EC50) in assay [2] amounted to 3.84 µM.

Turning to `CC1(C)CC(=O)C2=C(C1)Nc1cc(F)c(F)cc1NC2c1ccc(Cl)cc1Cl` (stereo not shown) [compound 466, 7,8-difluoro-11-(2,4-dichlorophenyl)-3,3-dimethyl-2,3,4,5,10,11-hexahydro-1H-dibenzo[b,e][1,4]diazepin-1-one], in assay [1], the IC50 was 68.1 µM. Moreover, the EC50 in assay [2] came to 6.81 µM.

In the case of `COc1cc2c(cc1OC)NC(c1ccc(Cl)cc1Cl)C1=C(CC(C)(C)CC1=O)N2` (stereo not shown) [compound 467, 7,8-dimethoxy-11-(2,4-dichlorophenyl)-3,3-dimethyl-2,3,4,5,10,11-hexahydro-1H-dibenzo[b,e][1,4]diazepin-1-one], the IC50 in assay [1] was > 133 µM. In addition, in assay [2], the EC50 was 30 µM.

Compound `CC1(C)CC(=O)C2=C(C1)Nc1ccc(C#N)cc1NC2c1ccc(Cl)cc1Cl` (stereo not shown) [compound 473] displayed an IC50 in assay [1] of 50 µM. Also, the concentration for a half-maximal effect (EC50) in assay [2] worked out at 20 µM.

Consider `O=C1C[C@@H](c2ccc3c(c2)OCO3)CC2=C1[C@H](c1cccnc1)Nc1ccccc1N2` [compound 476], for which the IC50 in assay [1] is > 42.7 µM. In addition, the EC50 in assay [2] is 22.9 µM.

For `CCn1c2ccccc2c2cc([C@@H]3Nc4ccccc4NC4=C3C(=O)C[C@@H](c3ccc(OC)c(OC)c3)C4)ccc21` [compound 477], the IC50 in assay [1] was > 42.7 µM. Besides, in assay [2], the concentration for a half-maximal effect (EC50) was 4.49 µM.

Take `CCn1c2ccccc2c2cc([C@@H]3Nc4ccccc4NC4=C3C(=O)C[C@@H](c3ccc(Cl)cc3)C4)ccc21` [compound 480]: in assay [1], the IC50 was > 42.7 µM. Also, the concentration for a half-maximal effect (EC50) in assay [2] worked out at 5.7 µM.

Regarding `O=C1C[C@@H](c2ccccc2)CC2=C1[C@H](c1cc3c(cc1Br)OCO3)Nc1ccccc1N2` [compound 481], the half-inhibitory concentration (IC50) in assay [1] is > 42.7 µM. The EC50 in assay [2] was found to be 1.61 µM.

Take `O=C1C[C@@H](c2ccc(Cl)cc2)CC2=C1[C@H](c1c[nH]c3ccccc13)Nc1ccccc1N2` [compound 482]: in assay [1], the IC50 is > 42.7 µM. In assay [2], the EC50 turned out to be 27 µM.

On to `O=C1C[C@@H](c2ccc(Cl)cc2)CC2=C1[C@H](c1cccnc1)Nc1ccccc1N2` [compound 483], for which the IC50 in assay [1] is > 42.7 µM. The concentration for a half-maximal effect (EC50) in assay [2] stood at 15.5 µM.

Consider `CCn1c2ccccc2c2cc([C@@H]3Nc4ccccc4NC4=C3C(=O)C[C@@H](c3ccccc3)C4)ccc21` [compound 484], for which the IC50 in assay [1] was > 42.7 µM. Besides, the concentration giving a half-maximal response (EC50) in assay [2] is 6.65 µM.

As for `COc1ccc([C@@H]2CC(=O)C3=C(C2)Nc2ccccc2N[C@H]3c2cc3c(cc2[N+](=O)[O-])OCO3)cc1` [compound 485], the half-inhibitory concentration (IC50) in assay [1] was > 42.7 µM. Moreover, the EC50 in assay [2] is 3.39 µM.

As for `COc1ccc([C@@H]2CC(=O)C3=C(C2)Nc2ccccc2N[C@H]3c2cc3c(cc2Br)OCO3)cc1` [compound 486], the concentration for half-maximal inhibition (IC50) in assay [1] was > 42.7 µM. In addition, the EC50 in assay [2] was found to be 3.31 µM.

With `COc1ccc([C@@H]2CC(=O)C3=C(C2)Nc2ccccc2N[C@H]3c2cc3c(cc2[N+](=O)[O-])OCO3)cc1OC` [compound 487], the IC50 in assay [1] is > 42.7 µM. In addition, the concentration giving a half-maximal response (EC50) in assay [2] is 3.15 µM.
